One experiment deals with SKBR3 cells. Description: SKBR3 cell viability, sulforhodamine B assay. The class given is cell-based, human. Particulars: for IC50: Homo sapiens, SK-BR-3, 72 h treatment. As to the method: MCF7 (ER^+, PR^+, HER2^−), SKBR3 (ER^−, PR^+, HER2^+) and MDA-MB231 (ER^−, PR^−, HER2^−) human BC cells and MCF10A non-cancer breast epithelial cells were available in our laboratory. MCF7, SKBR3 and MDA-MB231 cells were cultured in DMEM, supplemented with 10% FBS, 2 mM glutamine, 100 units/ml penicillin and 100 units/ml streptomycin. MCF10A cells were cultured in MEBM, supplemented with 0.4% BPE, 0.1% hEGF, 0.1%, Insulin, 0.1% Hydrocortisone and 0.1% GA-1000. […] Treatment with SER were carried out in culture conditions. Treatment with Tamoxifen and/or SER were carried out upon 48 h estrogen starvation in phenol-red free medium supplemented with 10% Charcoal Stripped (C/S) FBS, 2 mM glutamine, 100 units/ml penicillin and 100 units/ml streptomycin.
Cells were fixed with 50% trichloroacetic acid for at least 2 h at 4 °C, washed with distilled and de-ionized water, air-dryed and stained 30 min with 0.4% sulforhodamine B in 1% acetic acid. Unbound dye was removed and 10 mM tris-HCl solution (pH 7.5) was added to dissolve the protein-bound dye. Cell survival was assessed by optical density determination at 510 nm using a microplate reader.
Fig. 3 Effect of SER on SKBR3 cell viability. […] Cell viability was assessed, after 72 h, by sulforhodamine B assay (see Methods).
In general terms: The SRB assay estimates cell density from bound dye.

Experiment [1] concerns the target T1, serotonin 5-HT2A receptor (Rattus norvegicus, UniProt P14842).
T1 construct: serotonin 5-HT2A receptor, [^3H]ketanserin, rat brain cortex; from tissue; host or cells: rat brain cortex
Description: radioligand binding assay, 5-HT2A, [3H]ketanserin. Particulars: rat brain cortex; for Ki: read-out: Ki ± SD, 5-HT2A [3H]Ketanserin. As to the method: (§1) All reactions were monitored by TLC, carried out on Merck 60G F254 plates with fluorescent indicator and the plates were visualized with UV light (254 nm). Each final compound and intermediate was purified by silica gel column chromatography (Macherey-Nagel 60 0,063–0,2 mm/70–230 mesh). […] Unless otherwise stated, all spectra were recorded in CDCl3. Chemical shifts are reported in ppm using Me4Si as internal standard. The following abbreviations are used to describe peak patterns when appropriate: s (singlet), d (doublet), t (triplet), m (multiplet), q (quartet), qt (quintet), dd (double doublet), ddd (double dd), bs (broad singlet). Mass spectra of the final products were performed on LTQ Orbitrap XL™ Fourier transform mass spectrometer (FTMS) equipped with ESI ION MAX™ source (Thermo Fisher, San José, USA). Melting points were determined using a Buchi B-540 hot-stage instrument and are uncorrected. […] All the compounds were dissolved in 5% DMSO. The following specific radioligands and tissue sources were used: (a)serotonin 5-HT1A receptor, [^3H]-8-OH-DPAT, rat brain cortex; (b) serotonin 5-HT2A receptor, [^3H]ketanserin, rat brain cortex; (c)serotonin 5-HT2C receptor, [^3H]mesulergine, rat brain cortex. Non-specific binding was determined as described in the experimental section, and specific binding as the difference between total and non-specific binding. […] The IC50 values obtained were used to calculate apparent inhibition constants (Ki) by the method of Cheng and Prussoff, from the following equation: Ki = IC50/(1 + S/KD) where S represents the concentration of the hot ligand used and KD its receptor dissociation constant (KD values, obtained by Scatchard analysis, were calculated for each labeled ligand). Radioligand binding assays for 5-HT1A were performed following a published procedure. 5-HT2A and 5-HT2C binding assays were performed reported by Herndon et al..

Experiment [2] deals with T2, serotonin 5-HT2C receptor (Rattus norvegicus, UniProt P08909).
T2 construct: serotonin 5-HT2C receptor, [^3H]mesulergine, rat brain cortex; from tissue; host or cells: rat brain cortex
T2 sequence (P08909 33-460): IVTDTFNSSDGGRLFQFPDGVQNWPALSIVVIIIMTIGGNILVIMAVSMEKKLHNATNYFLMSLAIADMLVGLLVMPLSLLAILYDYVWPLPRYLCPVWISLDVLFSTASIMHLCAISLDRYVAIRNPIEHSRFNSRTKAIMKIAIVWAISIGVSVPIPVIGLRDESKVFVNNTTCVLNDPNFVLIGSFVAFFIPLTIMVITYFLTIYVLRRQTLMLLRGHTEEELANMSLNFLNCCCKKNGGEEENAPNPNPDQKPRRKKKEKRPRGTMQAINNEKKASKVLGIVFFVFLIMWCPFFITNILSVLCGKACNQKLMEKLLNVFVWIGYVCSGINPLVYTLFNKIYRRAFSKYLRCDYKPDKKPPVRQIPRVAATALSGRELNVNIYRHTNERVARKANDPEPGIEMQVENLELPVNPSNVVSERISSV
Kind of experiment: radioligand binding assay, 5-HT2C, [3H]mesulergine. Particulars: rat brain cortex; read-out: Ki ± SD, 5-HT2C [3H]Mesulergine. The method, then: as §1

T1 sequence (P14842 whole entry): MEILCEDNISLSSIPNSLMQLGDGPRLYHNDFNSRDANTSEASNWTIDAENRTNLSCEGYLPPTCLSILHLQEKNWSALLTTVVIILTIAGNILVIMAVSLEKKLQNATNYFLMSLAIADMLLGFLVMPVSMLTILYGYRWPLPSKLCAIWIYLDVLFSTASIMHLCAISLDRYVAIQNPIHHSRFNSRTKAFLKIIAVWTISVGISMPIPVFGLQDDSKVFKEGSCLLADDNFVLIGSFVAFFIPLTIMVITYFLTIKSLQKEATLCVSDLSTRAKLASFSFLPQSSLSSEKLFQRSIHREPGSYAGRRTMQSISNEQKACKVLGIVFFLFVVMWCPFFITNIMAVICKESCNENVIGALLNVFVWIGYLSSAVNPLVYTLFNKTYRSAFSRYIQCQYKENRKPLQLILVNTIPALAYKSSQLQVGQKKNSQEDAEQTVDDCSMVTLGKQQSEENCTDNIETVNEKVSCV

A word on the IC50: it is the point on the concentration scale where inhibition reaches its midpoint. As a reminder, the Ki is a measure of affinity in units of concentration, obtained from inhibition or displacement. `N#CN=C(NCCCN1CCN(C(c2ccc(F)cc2)c2ccc(F)cc2)CC1)c1ccccn1` [SER79]: in the experiment with SKBR3 cells (50 μM, 72 h), the “reduction of SKBR3 cell viability” value is “≈ 50%”. The same compound displayed a half-inhibitory concentration (IC50) in the experiment on SKBR3 cells of 53600 ± 10400 nM. Further, in experiment [1], the “Ki ± SD, 5-HT2A [3H]Ketanserin” value is on record as “weak” and the Ki came out at 504 ± 39.5 nM. In addition, the Ki in experiment [2] is 21.4 ± 1.22 nM.

Compound `O=C1C2C3C=CC(C3)C2C(=O)N1OCCN1CCN(c2ccc(Cl)c(Cl)c2)CC1` (centres unmarked) [SER68] had a 50% inhibitory concentration (IC50) in the experiment with SKBR3 cells of 260000 ± 94900 nM. Also, the Ki in experiment [1] was 153 ± 70 nM; in experiment [2], 1.13 ± 0.16 nM.

Values taken from article PMC8845285, “Serotoninergic receptor ligands improve Tamoxifen effectiveness on breast cancer cells” (BMC Cancer, 2022).
